Assay results from US4347319A, “Microbiological epoxidation process” (priority 1980, dated 1982).

Test system: Methylosinus trichosporium OB3b (NRRL B-11,196)
Test: Oxidation by cell suspensions of methane-grown cells
Format: cell-based
Settings: methane-grown cell-suspension; pH 7.0; 3° C.

Row | Compound | Conversion Rate to Ethanol
1 | CC [Ethane] | 1.3 μmoles/hr./mg./protein

Test system: P(40) particulate fraction of Methylosinus sp. (CRL-15, NRRL B-11,202)
Test: Effect of metals on propylene epoxidation and methane hydroxylation
Format: biochemical
Settings: metal 10^-3 M; P(40) fraction; control 4.0
Procedure: (§1) The oxidation of methane and propylene by particulate [(P)40 and (P)80] fractions and soluble [S(80)] fraction was measured at 30° C. by estimating the production of methanol and propylene oxide, respectively. The reaction mixtures contained in […]: 150 mM potassium phosphate buffer, pH 7.0 containing 5 mM MgCl2 b, 0.6 ml; 10μ moles NADH, and cellular fraction.
(§2) Reaction mixtures were contained in 10 ml vials at 4° C. Vials were sealed with rubber caps. The gaseous phase in the vials was removed using vacuum and then was replaced with a gas mixture of methane or propylene and oxygen at a 1:1, v/v ratio. Oxidation of other gaseous n-alkanes and n-alkanes was examined as described above. For liquid substrates, 10 μl of substrate was used directly.
Since the methane mono-oxygenase from methane-utlizing bacteria is a copper or iron-containing protein (Tonge et al., J. Biochem., 161: 333-344 (1977)), we have examined the effect of copper and iron salts on the oxidation of methane and propylene by the P(40) particulate fraction of Methylosinus sp. (CRL-15, NRRL B-11,202). The rate of hydroxylation of methane to methanol and epoxidation of propylene to propylene oxide was increased twofold in the presence of added copper salts (Table XII).

Row | Compound | Methane-Oxidizing Activity
2 | Ferrous Sulfate | 4.8 μmoles/hr/mg protein
3 | [Cl][Cu] [Cuprous Chloride] | 7.2 μmoles/hr/mg protein
4 | [Cl][Fe]([Cl])[Cl] [Ferric Chloride] | 4.8 μmoles/hr/mg protein

Same assay, conditions: metal 10^-3 M; P(40) fraction; control […]

Row | Compound | Propylene-Oxidizing Activity
5 | Ferrous Sulfate | 5.9 μmoles/hr/mg protein
6 | [Cl][Cu] [Cuprous Chloride] | 9.2 μmoles/hr/mg protein
7 | [Cl][Fe]([Cl])[Cl] [Ferric Chloride] | 5.8 μmoles/hr/mg protein

Test system: Methylococcus capsulatus (CRL M1) NRRL B-11,219
Test: Oxidation by washed cell suspensions of methane-grown cells
Format: cell-based
Settings: methane-grown cell-suspension; pH 7.0; 3° C.
Procedure: (§3) The pH of the nutrient medium was adjusted to 7.0 by the addition of acid or base and 50 ml samples of the nutrient medium were charged into a plurality of 300 ml shaker flasks. The shaker flasks were inoculated with an inoculating loop of cells from an agar plate containing homogeneous colonies of the microorganisms on the plate (the purity of the isolates was confirmed by microscopic examination. The isolates had been maintained on agar plates under an atmosphere of methane and air having a 1:1 v/v gas ratio which had been transferred evey two weeks. The gaseous phase of the inoculated flasks was then replaced with a gas mixture comprised of methane and air having a ratio of 1:1 on a v/v basis. The inoculated flasks were sealed air tight and were incubated on a rotary shaker of orbital radius 2.5 cm at 250 rpm and at 30° C. for two days until turbidity in the medium had developed.
(§4) The cells were harvested by centrifugation at 10,000×g. at 4° C. for 30 minutes. The cell pellet was washed twice with a 0.15 M phosphate buffer at a pH of 7.0 (containing 0.002 M MgCl2). The washed cells were then suspended in a 0.15 M phosphate buffer at pH 7.0.
(§5) A 0.5 ml sample of each washed cell suspension (2 mg cells) was put into 10 ml vials at 4° C. which were sealed with a rubber cap. The gaseous phase of the vials was removed with vacuum and then was replaced with a gas mixture of the oxidative substrate (e.g., methane) and oxygen at a 1:1 v/v ratio. The vials were then incubated at 30 ° C. on a rotary shaker at 300 rpm. Samples of product (3 μl) were withdrawn periodically with a microsyringe and the products were analyzed by gas chromatography (ionization flame detector column).
(§6) The newly discovered and isolated microorganism strains of the present invention were each grown aerobically in the presence of methane in the manner described above. The methane-grown microbial cells were then washed, recovered and put to use in oxidizing an oxidative substrate by the procedure described above except in the case of a liquid substrate 10 μl of the substrate were used.

Row | Compound | Conversion Rate to Ethanol
8 | CC [Ethane] | 2.0 μmoles/hr./mg./protein

Test system: Methylobacter vinelandii (CRL M5Y) NRRL B-11,218
Test: as above
Format: cell-based
Settings: methane-grown washed cells
Procedure: as §3, §4, §5, §6

Row | Compound | oxidative conversion | conversion rate cyclohexane to cyclohexanol
9 | c1ccccc1 [benzene] | no oxidative conversion was detected | 
10 | C1CCCCC1 [Cyclohexane] |  | 1.5 μ moles/2 hr./mg. protein
11 | Cc1ccccc1 [toluene] | no oxidative conversion was detected | 

Test system: purified secondary alcohol dehydrogenase from Pichia sp. NRRL Y-11,328
Test: Substrate specificity, electron acceptor and stoichiometry of purified yeast SADH
Format: biochemical
Settings: not given

Row | Compound | electron acceptor / carrier
12 | cytochrome c | could not act as electron carrier

Same assay, conditions: examined spectrophotometrically

Row | Compound | oxidation by the purified enzyme
13 | CC(O)CO (centres unmarked) [1,2-propandiol] | not oxidized
14 | CCCCO [butan-1-ol] | not oxidized
15 | CCCCCC(C)O (centres unmarked) [2-Heptanol] | not oxidized
16 | CCC(O)CO (centres unmarked) [butane 1,2-diol] | not oxidized
17 | CC(O)CCO (centres unmarked) [butane 1,3-diol] | not oxidized
18 | CCCCCO [pentan-1-ol] | not oxidized
19 | CCCCCCC(C)O (centres unmarked) [2-octanol] | not oxidized
20 | CCCO [propan-1-ol] | not oxidized
21 | CO [methanol] | not oxidized
22 | CCO [ethanol] | not oxidized

Test system: purified secondary alcohol dehydrogenase (SADH) from Pseudomonas sp. ATCC 21439
Test: Kinetics and substrate specificity of purified SADH
Format: biochemical
Settings: not given

Row | Compound | oxidation by SADH
23 | CC(C)CO [isobutanol] | not oxidized
24 | CCC(O)CO (centres unmarked) [butane 1,2-diol] | not oxidized
25 | O=Cc1ccccc1 [benzaldehyde] | not oxidized
26 | O=C(O)CCC(=O)O [succinic acid] | not oxidized
27 | Oc1ccccc1 [phenol] | not oxidized
28 | C=O [formaldehyde] | not oxidized

Same assay, conditions: 2-butanol = 100%

Row | Compound | relative percent rate of oxidation
29 | CCC=O [propanal] | 2%

Test system: purified secondary alcohol dehydrogenase (SADH) from Pseudomonas sp. ATCC 21439
Test: Effect of metal-chelating agents and thio reagents on purified SADH
Format: biochemical
Settings: not given
Procedure: Secondary alcohol dehydrogenase (SADH) from an obligate methanol utilizer, Pseudomonas sp. ATCC 21439 was purified as follows. […] 0.05 M sodium phosphate buffer, pH 7.0 with 0.5 mM dithiothretol (buffer A) and were disrupted sonically (5×1 min.). The crude extract was separated by centrifugation. The crude extract was heat-treated at 50° C. in a water bath for 10 minutes. The resulting precipitate was removed by centrifugation. To the supernatant solution, 25 ml of protamine sulfate solution (2% solution in 0.1 M Tris base) was added dropwise with continuous stirring. After standing for 30 minutes, the extract was centrifuged. The supernatant solution was fractionated with solid ammonium sulfate. […] This DEAE-cellulose eluate was concentrated by ammonium sulfate fractionation. Material precipitating between 30 and 50% ammonium sulfate saturation was collected by centrifugation and dialyzed overnight against A. This fraction was further washed and filtered through an Amicon unit with XM 50 membrane. The concentrated fraction (6 ml) inside the Amicon unit was applied to an Affi-Gel Blue column (0.8 cm×18 cm) which had been equilibrated with buffer A for affinity chromatography. The column was washed overnight with buffer A (0.18 ml./min.) and then was eluted with buffer A containing 5 mM NAD. Each 1 ml. fraction was collected.
The purified secondary alcohol dehydrogenase enzyme (SADH) may be used directly for converting C3 -C6 secondary alcohols to the corresponding methyl ketones by the procedures described above; however, a source of NAD^+ must be added to the reaction medium. One can determine the NAD-linked secondary alcohol dehydrogenase activity with a fluorescence spectrophotometer (Perkin Elmer, Model MPF 44A) by following the formation of reduced NAD (Ex 340 nm, Em 460 nm). The assay system (3 ml.) will typically contain: sodium phosphate buffer pH 7.0, 150 μmol; NAD 1.0 μmol; a given amount of enzyme preparation; and 20 μmol secondary alcohol. The reaction is started by the addition of secondary alcohol. One unit of SADH enzyme activity represents the reduction of one nmole NAD per minute.
The effect of metal-chelating agents and chioreagents on the activity of the purified SADH enzyme were studied. […] The possibility of ethanol or n-propanol as an inhibitor was studied.

Row | Compound | % inhibition of SADH activity | inhibition of SADH activity
30 | O=C(O)CN(CCN(CC(=O)O)CC(=O)O)CC(=O)O [EDTA] | 63% | 
31 | O=C(O)CI [iodoacetic acid] | 0% | 
32 | CCCO [propan-1-ol] |  | did not inhibit

Same assay, conditions: final concentration of 1 mM; measured spectrofluorometrically

Row | Compound | % inhibition of SADH activity
33 | [Fe+3] [ferric] | 35%
34 | [N-]=[N+]=[N-] [Sodium azide] | 10%
35 | CCN1C(=O)C=CC1=O [N-ethylmalemide] | 6%
36 | [Cu+2] [cupric] | 25%
37 | [Ni+2] [nickel] | 20%
38 | [Zn+2] [Zn^++] | 0%
39 | [Fe+2] [ferrous] | 50%
40 | [Mg+2] [Mg^++] | 0%
41 | [Co+2] [Co^++] | 0%
42 | O=C(O)c1cc(SSc2ccc([N+](=O)[O-])c(C(=O)O)c2)ccc1[N+](=O)[O-] [5,5'-dithiobis(2-nitrobenzoic acid)] | 100%
43 | [Mn+2] [Mn^++] | 0%

Biological target: T1, cell fractions of Methylosinus sp. (CRL-15, NRRL B-11,202) (Methylosinus trichosporium, UniProt Q50541+Q9KX50+Q9KX51)
T1 sequence (Q9KX50 40-431): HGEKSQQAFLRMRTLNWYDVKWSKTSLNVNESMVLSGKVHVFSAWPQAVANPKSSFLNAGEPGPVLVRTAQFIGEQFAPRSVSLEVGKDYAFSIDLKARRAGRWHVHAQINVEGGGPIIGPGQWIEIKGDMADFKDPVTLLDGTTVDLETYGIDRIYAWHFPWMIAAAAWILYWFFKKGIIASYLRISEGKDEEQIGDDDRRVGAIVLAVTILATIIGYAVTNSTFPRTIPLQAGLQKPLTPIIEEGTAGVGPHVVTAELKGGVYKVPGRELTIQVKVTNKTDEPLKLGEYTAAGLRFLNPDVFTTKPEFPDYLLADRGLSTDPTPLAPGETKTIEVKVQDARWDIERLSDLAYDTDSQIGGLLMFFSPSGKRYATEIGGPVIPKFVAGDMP
T1 sequence (Q50541 1-252): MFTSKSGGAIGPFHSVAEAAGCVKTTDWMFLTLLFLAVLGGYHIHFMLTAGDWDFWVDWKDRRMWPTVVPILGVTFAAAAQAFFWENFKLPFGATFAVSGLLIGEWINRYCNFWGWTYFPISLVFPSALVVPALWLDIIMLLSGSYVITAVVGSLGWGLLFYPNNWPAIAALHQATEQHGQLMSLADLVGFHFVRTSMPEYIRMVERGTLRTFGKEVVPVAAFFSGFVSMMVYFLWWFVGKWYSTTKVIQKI
T1 sequence (Q9KX51 1-256): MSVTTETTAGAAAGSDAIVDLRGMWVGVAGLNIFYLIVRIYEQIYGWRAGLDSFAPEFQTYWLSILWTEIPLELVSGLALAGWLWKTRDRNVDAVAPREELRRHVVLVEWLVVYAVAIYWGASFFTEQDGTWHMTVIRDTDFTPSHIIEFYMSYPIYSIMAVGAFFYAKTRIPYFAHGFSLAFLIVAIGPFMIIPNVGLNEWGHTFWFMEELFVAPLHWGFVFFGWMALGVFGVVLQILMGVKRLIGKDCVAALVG
Test: Oxidation by cell fractions P(40), P(80), S(80)
Format: biochemical
Settings: P(40) particulate fraction; alkene to epoxide, alkane to alcohol; 30° C.
Procedure: Cells were washed twice with 25 mM potassium phosphate buffer, pH 7.0 containing 5 mM MgCl2. Cells were suspended in the same buffer. The cell suspensions at 4° C. were disintegrated by a single passage through a French Pressure cell (15,000 lb./in.^2) and centrifuged at 5000×g. for 15 min. to remove unbroken bacteria. The supernatant solution (crude extract) was then centrifuged at 40,000×g. for 30 min., yielding particulate P(40) and soluble S(40) fractions. The S(40) fraction was subsequently centrifuged at 80,000×g. for 60 min., yielding particulate P(80) and soluble S(80) fractions. The particulate fractions [P(40) and P(80)] were suspended in 25 mM potassium phosphate buffer, pH 7.0, containing 5 mM MgCl2 and homogenized at 4° C.
as §1, §2
The products of epoxidation of n-alkenes and hydroxylation of n-alkanes were assayed by flame ionization gas chromatography using a stainless steel column (12'×1/8") packed with 10% Carbowax 20 M on 80/100 Chromosorb W and Porapak Q column. The column temperature was maintained isothermally at 120° C. The carrier gas flow rate was 30 ml/min. of helium. The various products were identified by retention time comparisons and co-chromatography with authentic standards.
Specific activities were expressed as μ moles of products formed per hour per mg. protein. Concentrations of protein in various fractions were determined by the method of Lowry et al., J. Biol. Chem., 193: 265-275 (1951).

Row | Compound | Rate of Product Formation
44 | CC [Ethane] | 3.2 μ moles/hr/mg of protein
